ChEMBL document CHEMBL1131616, “TROTEC-1: a new high-affinity ligand for labeling of the dopamine transporter” (J Med Chem, 1998)
pIC50: −log10 of the molar value.

Legend:
[1] = biological target: T1, Sodium-dependent dopamine transporter (Homo sapiens, UniProt Q01959); assay: The compound was tested in vitro for high binding affinity for the Dopamine transporter (DAT) using competitive binding assay.
[2] = biological target: T1, Sodium-dependent dopamine transporter; assay: The compound was tested in vitro for low binding affinity for the Dopamine transporter (DAT) using competitive binding assay.
[3] = biological target: Sodium-dependent noradrenaline transporter (Homo sapiens, UniProt P23975); assay: The compound was tested in vitro for binding affinity for the norepinephrine transporter (NET) using competitive binding assay.
[4] = biological target: Sodium-dependent serotonin transporter (Homo sapiens, UniProt P31645); assay: The compound was tested in vitro for binding affinity for the serotonin transporter (5-HTT) using competitive binding assay.
Sequence of Sodium-dependent serotonin transporter (P31645 whole entry): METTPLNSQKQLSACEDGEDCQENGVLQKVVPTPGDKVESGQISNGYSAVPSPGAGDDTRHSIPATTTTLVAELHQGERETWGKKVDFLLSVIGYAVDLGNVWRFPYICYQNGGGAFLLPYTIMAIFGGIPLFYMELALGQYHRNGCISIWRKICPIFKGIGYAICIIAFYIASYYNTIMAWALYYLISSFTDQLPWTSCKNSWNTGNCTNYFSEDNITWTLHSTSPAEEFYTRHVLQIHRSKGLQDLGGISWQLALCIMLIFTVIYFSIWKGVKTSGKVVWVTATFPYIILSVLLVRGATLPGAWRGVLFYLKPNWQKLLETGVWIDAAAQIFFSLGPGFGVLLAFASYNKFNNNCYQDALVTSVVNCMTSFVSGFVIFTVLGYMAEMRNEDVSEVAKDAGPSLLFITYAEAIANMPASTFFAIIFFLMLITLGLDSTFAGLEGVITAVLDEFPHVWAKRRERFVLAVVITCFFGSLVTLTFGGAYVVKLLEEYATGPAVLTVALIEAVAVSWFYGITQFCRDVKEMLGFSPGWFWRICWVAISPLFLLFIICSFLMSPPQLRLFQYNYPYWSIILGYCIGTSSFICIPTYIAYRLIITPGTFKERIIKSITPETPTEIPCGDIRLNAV

Sequence of Sodium-dependent noradrenaline transporter (P23975 whole entry): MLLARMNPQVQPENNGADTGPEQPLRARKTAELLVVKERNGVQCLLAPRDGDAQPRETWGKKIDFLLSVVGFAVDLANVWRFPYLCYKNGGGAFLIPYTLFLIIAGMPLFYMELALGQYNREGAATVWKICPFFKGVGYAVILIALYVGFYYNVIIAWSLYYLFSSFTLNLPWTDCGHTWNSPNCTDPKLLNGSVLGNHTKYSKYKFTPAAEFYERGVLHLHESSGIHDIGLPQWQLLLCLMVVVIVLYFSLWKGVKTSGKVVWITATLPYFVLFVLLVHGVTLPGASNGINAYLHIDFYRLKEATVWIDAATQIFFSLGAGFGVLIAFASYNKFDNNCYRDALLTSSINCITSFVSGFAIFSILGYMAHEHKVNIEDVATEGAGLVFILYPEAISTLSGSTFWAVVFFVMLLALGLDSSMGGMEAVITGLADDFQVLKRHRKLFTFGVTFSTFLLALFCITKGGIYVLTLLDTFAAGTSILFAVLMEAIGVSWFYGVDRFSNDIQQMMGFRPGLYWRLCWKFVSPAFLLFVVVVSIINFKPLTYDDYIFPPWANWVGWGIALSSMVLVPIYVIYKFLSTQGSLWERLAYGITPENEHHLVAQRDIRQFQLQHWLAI
T1 sequence (Q01959 whole entry): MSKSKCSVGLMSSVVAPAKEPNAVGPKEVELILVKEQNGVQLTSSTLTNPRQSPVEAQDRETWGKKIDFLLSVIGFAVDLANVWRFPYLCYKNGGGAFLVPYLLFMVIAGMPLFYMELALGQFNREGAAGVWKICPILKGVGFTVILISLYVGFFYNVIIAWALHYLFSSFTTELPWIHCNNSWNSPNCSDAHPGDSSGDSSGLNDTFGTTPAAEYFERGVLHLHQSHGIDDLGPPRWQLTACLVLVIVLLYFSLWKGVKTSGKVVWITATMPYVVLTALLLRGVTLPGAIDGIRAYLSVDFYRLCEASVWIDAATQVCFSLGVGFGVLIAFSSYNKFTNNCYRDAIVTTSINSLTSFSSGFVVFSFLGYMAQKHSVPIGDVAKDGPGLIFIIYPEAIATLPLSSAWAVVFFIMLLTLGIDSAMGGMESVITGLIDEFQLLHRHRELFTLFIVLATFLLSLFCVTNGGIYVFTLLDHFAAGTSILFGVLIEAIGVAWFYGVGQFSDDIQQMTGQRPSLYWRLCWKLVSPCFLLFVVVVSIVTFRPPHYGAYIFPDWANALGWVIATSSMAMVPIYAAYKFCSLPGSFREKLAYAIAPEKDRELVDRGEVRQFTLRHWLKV

Row | SMILES | pIC50 [1] | pIC50 [2] | pIC50 [3] | pIC50 [4]
1 | CSCCSCCC(=O)OC[C@@H]1C2CCC(C[C@@H]1c1ccc(F)cc1)N2C (stereo partly specified) | 9.64 | 8.24 | 7.79 | 7.55
2 | COC(=O)[C@H]1[C@@H](c2ccc(F)cc2)C[C@H]2CC[C@H]1N2C | – | – | 6.08 | 6.12
